# Experimental data as given in ChEMBL document CHEMBL4392828, “Structural modification of indomethacin toward selective inhibition of COX-2 with a significant increase in van der Waals contributions” (Bioorg Med Chem, 2019).
# Active and inactive are the calls of the source. The calls are words filed in the database; no cut-off is given here.
# Molecular target: T1, Prostaglandin G/H synthase 1 (Ovis aries) (UniProt P05979)
# T1 sequence (whole entry): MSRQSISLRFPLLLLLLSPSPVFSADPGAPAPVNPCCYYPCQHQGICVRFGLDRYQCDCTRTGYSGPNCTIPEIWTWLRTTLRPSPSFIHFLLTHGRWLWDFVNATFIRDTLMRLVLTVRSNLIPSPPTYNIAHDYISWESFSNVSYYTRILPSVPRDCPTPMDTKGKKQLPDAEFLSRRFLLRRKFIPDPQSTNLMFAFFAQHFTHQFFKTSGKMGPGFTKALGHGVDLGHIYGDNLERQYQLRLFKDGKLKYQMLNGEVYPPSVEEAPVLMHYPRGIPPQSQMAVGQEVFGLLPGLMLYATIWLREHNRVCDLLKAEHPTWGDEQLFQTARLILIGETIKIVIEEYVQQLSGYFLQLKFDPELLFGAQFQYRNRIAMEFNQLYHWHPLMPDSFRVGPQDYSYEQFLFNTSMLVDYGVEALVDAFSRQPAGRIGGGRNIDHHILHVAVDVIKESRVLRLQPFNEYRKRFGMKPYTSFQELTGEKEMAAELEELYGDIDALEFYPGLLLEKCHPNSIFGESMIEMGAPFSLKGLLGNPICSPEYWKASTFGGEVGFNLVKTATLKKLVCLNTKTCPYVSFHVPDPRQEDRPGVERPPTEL
# Assay: Inhibition of ovine COX1 assessed as reduction in PGF2alpha production up to 2000 nM using arachidonic acid as substrate incubated for 10 mins by EIA method relative to indomethacin
smiles,measurement,value
COc1ccc2c(c1)c(CC(=O)O)c(/C=C/C(F)(F)F)n2C(=O)c1ccc(Cl)cc1,inhibition,inactive
